Key:
physchem [1] = details: buffer, pH 7.4
Description: Log D of compound; LogD at pH 7.4

physchem [2] = details: octanol/water
Description: (§1) Partition coefficient of Zwitterion (logD)

physchem [3] = details: octanol/water; remark: listed apart in the source
Description: Partition coefficient of anion (logD)

physchem [4] = assay: physchem
Description: Sugar COOH pKa of compound

[5] = octanol/water
Description: Partition coefficient of cation (logD)

physchem [6] = assay: physchem; remark: listed apart in the source
physchem [7] = assay: physchem; remark: listed apart in the source
[8] = Phenolic pKa of compound with […] NaCl; format: physicochemical
[9] = octanol/water; remark: listed apart in the source
Description: as §1

[10] = Log D of compound (Chloroform water medium); format: physicochemical; details: buffer
[11] = Partition coefficient (logD) of Zwitterion (chloroform/water); format: physicochemical
[12] = Partition coefficient (logD) of anion (chloroform/water); format: physicochemical
[13] = Partition coefficient (logP) (chloroform); format: physicochemical

SMILES	logD (physchem [1])	logD (physchem [2])	logD (physchem [3])	logD [5]	pKa (physchem [6])	other results
Cc1cc(=O)oc2cc(O[C@@H]3O[C@H](C(=O)O)[C@@H](O)[C@H](O)[C@H]3O)ccc12	-1.32	-0.39	-1.3			pKa (physchem [4]): 2.82
CC(=O)O[C@H]1C=C[C@H]2[C@H]3Cc4ccc(O)c5c4[C@@]2(CCN3C)[C@H]1O5	0.61	1.55	-0.42	< -2	8.19	pKa (physchem [7]): 9.55
CO[C@]12CC[C@@]3(C[C@@H]1[C@](C)(O)C(C)(C)C)[C@H]1Cc4ccc(O)c5c4[C@@]3(CCN1CC1CC1)[C@H]2O5 [BUPRENORPHINE]	3.93		3.24	0.45	8.31	pKa [8]: 9.62
COc1ccc2c3c1O[C@H]1[C@@H](O)C=C[C@H]4[C@@H](C2)N(C)CC[C@@]341 [CODEINE]	0.22			< -2		logD [9]: 1.19
CC(=O)Oc1ccc2c3c1O[C@H]1[C@@H](OC(C)=O)C=C[C@H]4[C@@H](C2)N(C)CC[C@@]341 [DIACETYLMORPHINE]	0.85	1.58		-0.94		
CN1CC[C@]23c4c5ccc(O[C@@H]6O[C@H](C(=O)O)[C@@H](O)[C@H](O)[C@H]6O)c4O[C@H]2[C@@H](O)C=C[C@H]3[C@H]1C5 [MORPHINE 3-GLUCURONIDE]	-1.12	-1.1	-1.45	< -2		logD [10]: -1.18; logD [11]: -1.12; logD [12]: < -2; logP [13]: -1.12
CN1CC[C@]23c4c5ccc(O)c4O[C@H]2[C@@H](O[C@@H]2O[C@H](C(=O)O)[C@@H](O)[C@H](O)[C@H]2O)C=C[C@H]3[C@H]1C5 [MORPHINE GLUCURONIDE]						pKa (physchem [7]): 9.42
COc1ccc2c3c1O[C@H]1[C@@H](O)C=C[C@H]4[C@@H](C2)NCC[C@@]341 [NORCODEINE]	-1.26	0.69	< -2	< -2	9.23	

From ChEMBL document CHEMBL1129378, “Octanol-, chloroform-, and propylene glycol dipelargonat-water partitioning of morphine-6-glucuronide and other related opiates” (J Med Chem, 1996)
